The values that follow come from patent publication US20090076015A1, “Tricyclic Spiro Compound Comprising Acyl Group Bound to Nitrogen Atom in the Ring” (priority 2005, published 2009).

In the first test the test system is human plasma. Description: Measurement of intrinsic coagulation time (APTT) in vitro. The test is classed as biochemical. To be noted: APTT reagent, 37° C., calcium chloride 25 mM. The method, then:
Activated partial thromboplastin time (APTT) is measured in the presence of the test compounds of the present invention diluted at various concentrations. To be more specific, each of the test compounds diluted with DMSO at various concentrations is mixed with human plasma and APTT reagent. The mixture is incubated at 37° C. for 2 minutes; calcium chloride (25 mM) is added to the mixture; and the coagulation time is thereafter measured. It should be noted that the anticoagulant activity of the test compound is described in terms of the concentration required to double the coagulation time for the case where no test compound is added.
Consider `C=CC(=O)N1CCC2(CC1)CN1C(=O)CN(S(=O)(=O)c3cc4cc(Cl)ccc4[nH]3)CC1(COC)N2C` (single isomer, unassigned; (-)) [Example 4, (−)-7-[(5-chloro-1H-indol-2-yl)sulfonyl]tetrahydro-8a-(methoxymethyl)-1-methyl-1′-propenoyl-spiro[imidazo[1,2-a]pyrazine-2(3H),4′-piperidin]-5(1H)-one], for which the “Concentration when APTT was doubled” value was 0.5 µM. For `COC(=O)COCC12CN(S(=O)(=O)c3cc4cc(Cl)ccc4[nH]3)CC(=O)N1CC1(CCN(C(C)=O)CC1)O2` (single isomer, unassigned; (-)) [Example 54, (−)-1′-acetyl-7-[(5-chloro-1H-indol-2-yl)sulfonyl]tetrahydro-8a-(methoxycarbonylmethoxymethyl)-spiro[5H-oxazolo[3,2-a]pyrazine-2(3H),4′-piperidin]-5-one], the “Concentration when APTT was doubled” value was determined as 0.4 µM.

On to `CCC(=O)N1CCC2(CC1)CN1C(=O)CN(S(=O)(=O)c3cc4cc(Cl)ccc4[nH]3)CC1(COC)N2` (single isomer, unassigned; (-)) [Example 26, (−)-7-[(5-chloro-1H-indol-2-yl)sulfonyl]tetrahydro-8a-(methoxymethyl)-1′-propanoyl-spiro[imidazo[1,2-a]pyrazine-2(3H),4′-piperidin]-5(1H)-one], for which the “Concentration when APTT was doubled” value came out at 0.44 µM. In the case of `CCOC(=O)CN(C)CC12CN(S(=O)(=O)c3cc4cc(Cl)ccc4[nH]3)C[C@@H](O)N1CC1(CCN(C(=O)CC)CC1)O2` (single isomer, unassigned) [Example 64, optically active 7-[(5-chloro-1H-indol-2-yl)sulfonyl]tetrahydro-8a-[(N-ethoxycarboxymethyl)-N-methylaminomethyl]-1′-propanoyl-spiro[5H-oxazolo[3,2-a]pyrazine-2(3H),4′-piperidin]-5-one], the “Concentration when APTT was doubled” value is 0.89 µM.

In the case of `CC(=O)N1CCC2(CC1)CN1C(=O)CN(S(=O)(=O)c3cc4cc(Cl)ccc4[nH]3)CC1(COc1ncccn1)O2` (single isomer, unassigned; (-)) [Example 56, (−)-1′-acetyl-7-[(5-chloro-1H-indol-2-yl)sulfonyl]tetrahydro-8a-(2-pyrimidyloxymethyl)-spiro[5H-oxazolo[3,2-a]pyrazine-2(3H),4′-piperidin]-5-one], the “Concentration when APTT was doubled” value worked out at 0.5 µM. `CCN1C2(CCN(C(C)=O)CC2)CN2C(=O)CN(S(=O)(=O)c3cc4cc(Cl)ccc4[nH]3)CC21COC` (single isomer, unassigned; (-)) [Example 23, (−)-1′-acetyl-7-[(5-chloro-1H-indol-2-yl)sulfonyl]tetrahydro-1-ethyl-8a-(methoxymethyl)-spiro[imidazo[1,2-a]pyrazine-2(3H),4′-piperidin]-5(1H)-one]: the “Concentration when APTT was doubled” value was 0.19 µM. On to `CC(=O)NCC12CN(S(=O)(=O)c3cc4cc(Cl)ccc4[nH]3)CC(=O)N1CC1(CCN(C(C)=O)CC1)N2C` (single isomer, unassigned) [Example 21, optically active 1′-acetyl-8a-(acetylaminomethyl)-7-[(5-chloro-1H-indol-2-yl)sulfonyl]tetrahydro-1-methyl-spiro[imidazo[1,2-a]pyrazine-2(3H),4′-piperidin]-5(1H)-one], for which the “Concentration when APTT was doubled” value stood at 0.36 µM.

With `COCC12CN(S(=O)(=O)/C=C/c3ccc(Cl)s3)CC(=O)N1CC1(CCN(C(C)=O)CC1)N2C` (single isomer, unassigned; (-)) [Example 14, (−)-1′-acetyl-7-[[(1E)-2-(5-chloro-2-thienyl)ethenyl]sulfonyl]tetrahydro-8a-(methoxymethyl)-1-methyl-spiro[imidazo[1,2-a]pyrazine-2(3H),4′-piperidin]-5(1H)-one], the “Concentration when APTT was doubled” value was determined as 0.64 µM. Still for that read-out and setting: for `COCC12CN(S(=O)(=O)/C=C/c3ccc(Cl)s3)CC(=O)N1CC1(CCN(C(C)=O)CC1)O2` (single isomer, unassigned; (-)) [Example 36, (−)-1′-acetyl-7-[[(1E)-2-(5-chloro-2-thienyl)ethenyl]sulfonyl]tetrahydro-8a-(methoxymethyl)-spiro[5H-oxazolo[3,2-a]pyrazine-2(3H),4′-piperidin]-5-one] the value was 0.83 µM; for `O=C(C1CC1)N1CCC2(CC1)CN1C(=O)CN(S(=O)(=O)c3cc4cc(Cl)ccc4[nH]3)CC1(CO)O2` (single isomer, unassigned; (-)) [Example 52, (−)-7-[(5-chloro-1H-indol-2-yl)sulfonyl]tetrahydro-1′-cyclopropanoyl-8a-(hydroxymethyl)-spiro[5H-oxazolo[3,2-a]pyrazine-2(3H),4′-piperidin]-5-one], 0.57 µM; for `C#CC(=O)N1CCC2(CC1)CN1C(=O)CN(S(=O)(=O)c3cc4ccc(Cl)cc4s3)CC1(COC)N2C` (single isomer, unassigned; (-)) [Example 17, (−)-7-[(6-chloro-benzo[b]thiophen-2-yl)sulfonyl]tetrahydro-8a-(methoxymethyl)-1-methyl-1′-propinoyl-spiro[imidazo[1,2-a]pyrazine-2(3H),4′-piperidin]-5(1H)-one], 0.87 µM.

In the next test the target is T1, human FXa (Homo sapiens, UniProt P00742).
T1 construct: purchased Enzyme Research Laboratories, Inc
T1 sequence (P00742 235-488 limits assumed): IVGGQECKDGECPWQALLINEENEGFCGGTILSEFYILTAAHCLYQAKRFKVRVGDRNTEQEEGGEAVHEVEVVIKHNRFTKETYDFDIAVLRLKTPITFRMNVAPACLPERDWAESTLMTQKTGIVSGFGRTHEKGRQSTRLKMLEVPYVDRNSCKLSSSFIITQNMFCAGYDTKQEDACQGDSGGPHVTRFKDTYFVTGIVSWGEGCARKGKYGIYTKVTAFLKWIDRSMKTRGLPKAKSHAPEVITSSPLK
T1 sequence (P00742 41-179 partner limits assumed): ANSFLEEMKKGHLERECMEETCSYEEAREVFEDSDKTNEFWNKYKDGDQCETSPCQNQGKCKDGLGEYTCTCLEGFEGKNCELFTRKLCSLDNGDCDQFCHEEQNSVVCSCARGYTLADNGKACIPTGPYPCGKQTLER
Put plainly: Measurement of the human FXa inhibitory action. The test is classed as biochemical. To be noted: human FXa 0.019 U/ml, substrate S-2222 0.4 mM, 37° C., Tris-HCl buffer pH 7.5. The procedure: In vitro FXa inhibitory activity may be measured according to the method of Kettner et al. (Journal of Biological Chemistry, vol. 265, pages 18289 to 18297, 1990). To be more specific, human FXa (product of Enzyme Research Laboratories, Inc., 0.019 U/ml) is mixed with the specimens (of the compound of the present invention) prepared by diluting the compound of the invention with dimethylsulfoxide (DMSO) to different concentrations and synthetic substrate S-2222 (Chromogenix AB, 0.4 mM), and the mixtures are incubated at 37° C. in Tris-hydrochloric acid buffer (pH 7.5). The FXa inhibitory activity of the specimen is calculated by continuously observing the absorbance at 405 nm, and comparing the initial speed with the initial speed in the absence of the specimen.
It should be noted that the FXa inhibitory activity of the specimen is generally indicated as IC50.
The compound `CCC(=O)N1CCC2(CC1)CN1C(=O)CN(S(=O)(=O)c3cc4cc(Cl)ccc4[nH]3)CC1(COC)N2` (single isomer, unassigned; (-)) [Example 26, (−)-7-[(5-chloro-1H-indol-2-yl)sulfonyl]tetrahydro-8a-(methoxymethyl)-1′-propanoyl-spiro[imidazo[1,2-a]pyrazine-2(3H),4′-piperidin]-5(1H)-one] gave an IC50 of 5.7 nM.

`CCC(=O)N1CCC2(CC1)CN1C(=O)CN(S(=O)(=O)c3cc4cc(Cl)ccc4[nH]3)CC1(COC)N2C` (single isomer, unassigned; (-)) [Example 2, (−)-7-[(5-chloro-1H-indol-2-yl)sulfonyl]tetrahydro-8a-(methoxymethyl)-1-methyl-1′-propanoyl-spiro[imidazo[1,2-a]pyrazine-2(3H),4′-piperidin]-5(1H)-one]: the IC50 amounted to 1.8 nM. In turn, `C#CC(=O)N1CCC2(CC1)CN1C(=O)CN(S(=O)(=O)c3cc4cc(Cl)ccc4[nH]3)CC1(COC)N2C` (single isomer, unassigned; (-)) [Example 13, (−)-7-[(5-chloro-1H-indol-2-yl)sulfonyl]tetrahydro-8a-(methoxymethyl)-1-methyl-1′-propinoyl-spiro[imidazo[1,2-a]pyrazine-2(3H),4′-piperidin]-5(1H)-one] yielded an IC50 of 2.6 nM. Take `CC(=O)NCC12CN(S(=O)(=O)c3cc4cc(Cl)ccc4[nH]3)CC(=O)N1CC1(CCN(C(C)=O)CC1)N2C` (single isomer, unassigned) [Example 21, optically active 1′-acetyl-8a-(acetylaminomethyl)-7-[(5-chloro-1H-indol-2-yl)sulfonyl]tetrahydro-1-methyl-spiro[imidazo[1,2-a]pyrazine-2(3H),4′-piperidin]-5(1H)-one]: half-maximal inhibition (IC50) required 5.6 nM.

Compound `COCC12CN(S(=O)(=O)c3cc4cc(Cl)ccc4[nH]3)CC(=O)N1CC1(CCN(C(C)=O)CC1)N2C` (single isomer, unassigned; (-)) [Example 1, (−)-1′-acetyl-7-[(5-chloro-1H-indol-2-yl)sulfonyl]tetrahydro-8a-(methoxymethyl)-1-methyl-spiro[imidazo[1,2-a]pyrazine-2(3H),4′-piperidin]-5(1H)-one] returned an IC50 of 5.7 nM. With `COCC12CN(S(=O)(=O)c3cc4cc(Cl)ccc4[nH]3)CC(=O)N1CC1(CCN(C(C)=O)CC1)O2` (single isomer, unassigned; (-)) [Example 34, (−)-1′-acetyl-7-[(5-chloro-1H-indol-2-yl)sulfonyl]tetrahydro-8a-(methoxymethyl)-spiro[5H-oxazolo[3,2-a]pyrazine-2(3H),4′-piperidin]-5-one], the IC50 was 8.2 nM.

As for `CC(=O)N1CCC2(CC1)CN1C(=O)CN(S(=O)(=O)c3cc4cc(Cl)ccc4[nH]3)CC1(CN(C)C)O2` (single isomer, unassigned) [Example 60, optically active 1′-acetyl-7-[(5-chloro-1H-indol-2-yl)sulfonyl]tetrahydro-8a-(N,N-dimethylaminomethyl)-spiro[5H-oxazolo[3,2-a]pyrazine-2(3H),4′-piperidin]-5-one], the IC50 was found to be 4.5 nM. Compound `C#CC(=O)N1CCC2(CC1)CN1C(=O)CN(S(=O)(=O)c3cc4ccc(Cl)cc4s3)CC1(COC)N2C` (single isomer, unassigned; (-)) [Example 17, (−)-7-[(6-chloro-benzo[b]thiophen-2-yl)sulfonyl]tetrahydro-8a-(methoxymethyl)-1-methyl-1′-propinoyl-spiro[imidazo[1,2-a]pyrazine-2(3H),4′-piperidin]-5(1H)-one] yielded a half-inhibitory concentration (IC50) of 6.5 nM.

Compound `CCC(=O)N1CCC2(CC1)CN1C(=O)CN(S(=O)(=O)c3cc4cc(Cl)ccc4[nH]3)CC1(CN(C)CC(=O)O)O2` (single isomer, unassigned) [Example 66, optically active N-[[7-[(5-chloro-1H-indol-2-yl)sulfonyl]tetrahydro-5-oxo-1′-propanoyl-spiro[5H-oxazolo[3,2-a]pyrazine-2(3H),4′-piperidin]-8a-yl]methyl]-N-methylglycine] gave an IC50 of 1.6 nM. In turn, `COCC12CN(S(=O)(=O)c3cc4cc(Cl)ccc4[nH]3)CC(=O)N1CC1(CCN(C(=O)C3CCC3)CC1)N2C` (single isomer, unassigned; (-)) [Example 3, (−)-7-[(5-chloro-1H-indol-2-yl)sulfonyl]-1′-cyclobutanecarbonyl-tetrahydro-8a-(methoxymethyl)-1-methyl-spiro[imidazo[1,2-a]pyrazine-2(3H),4′-piperidin]-5(1H)-one] registered an IC50 of 1.3 nM.
